Measurements reported in paper PMC6405930, “Conservation of the Amyloid Interactome Across Diverse Fibrillar Structures” (Scientific Reports, 2019).

Columns and labels:
[1] = target: T1, glucagon fibrils (Homo sapiens, UniProt P01275); assay: Fibril incubation with plasma, quantitative MS/MS of bound proteins; assay type: binding; design: key to Identification status of plasma protein bound: Glucagon: *: Identified, but not quantified; —: Not identified in any of the samples; conditions: for Relative composition of plasma proteins bound: Glucagon: 50:1 w/w plasma protein:fibril
T1 construct: fibrils of the peptide hormone glucagon
T1 sequence (P01275 53-81 limits assumed): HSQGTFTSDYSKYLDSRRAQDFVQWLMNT
Procedure: (§1) Plasma and CSF solutions were centrifuged (40,000 g, 20 min) to remove any aggregates. The protein concentration was determined using 280 nm absorbance assuming 1 Abs = 1 mg/mL. […] Control samples (without fibril material) were prepared similarly. All samples were incubated at room temperature for one hour under gentle agitation. Fibrils and fibril-bound proteins were pelleted by centrifugation at 17,000 g for 30 minutes. The supernatant (175 μL) was removed and the aggregate was re-suspended in 175 μL PBS and pelleted again before further preparation for gel analysis and spin-filter assisted digest for quantitative MS/MS.
(§2) The fibril-protein pellets were transferred to spin-filters (0.22 μm), washed twice in PBS (100 μL) and once in 1 M NaCl (100 μL). The fibrils and fibril-bound proteins were dissolved by one-hour incubation in 100 μL 6 M guanidinium chloride followed by elution from the spin-filter. The eluted proteins were loaded onto a 3 kDa MWCO filter unit for filter-assisted unfolding, reduction, alkylation, and trypsin digestion. In brief, samples were washed twice in 8 M urea, once in 8 M urea with 50 mM DTT, once in 8 M urea with 50 mM iodoaceteamide, and twice in 8 M Urea. The filter units were dried by centrifugation (14,000 g in 30 minutes) after every addition. Trypsin digestion was carried out with 0.25 μg sequencing grade trypsin from Sigma Aldrich in 50 mM ammonium bicarbonate overnight at 37 °C. The tryptic peptides were collected by centrifugation, acidified with TFA (0.1%) and micro-purified using POROS R2 column material (Applied Biosystems) packed in P200 pipette tips (Sarstedt).
(§3) LC-MS/MS analyses were performed on an EASY-nLC II system (Thermo Fisher Scientific) connected to a TripleTOF 5600+ mass spectrometer (Sciex) equipped with a NanoSpray III source (Sciex) and operated under Analyst TF 1.6.0 control.
(§4) The micro-purified tryptic peptides were dissolved in 0.1% formic acid, injected and trapped on an in-house packed trap column (2 cm × 100 μm I.D) with RP ReproSil-Pur C18-AQ 3 μm resin (Dr. Maisch GmbH). Peptides were eluted from the trap column and separated on a 15 cm analytical column (75 μm i.d.) packed in-house in a pulled emitter with RP ReproSil-Pur C18-AQ 3 μm resin (Dr. Maisch GmbH). Elution from the analytical column was performed with a linear gradient from 5% to 35% phase B (90% acetonitrile with 0.1% formic acid) over 20 min for protein identification and 50 min for quantitative analysis, respectively.
(§5) All samples were analysed three times, yielding nine MS/MS experiments for each fibril for both plasma and CSF. For the area-based extracted ion chromatogram (XIC) quantification, the acquisition method was set up as an information-dependent acquisition (IDA) experiment collecting up to 25 MS/MS spectra in each 1.6 sec cycle using an exclusion window of 6 sec.
(§6) XIC quantification was based on the average ion intensity of the three most abundant peptides for each protein. Only proteins quantified in at least four out of nine MS/MS experiments per fibril were included in the quantification. The total ion scores were visualized after grouping the proteins according to function (Figure S11).
(§7) For each MS/MS experiment, the ion intensities of the individual proteins were normalized to the total ion intensity of that MS/MS experiment to achieve a relative protein composition. The contribution of each protein was averaged over all nine MS/MS experiments (Tables 1 and 2).

[2] = system: T2, Ab1 fibrils; assay: as above; assay type: binding, human; design: key to Identification status of plasma protein bound: Ab1: *: Identified, but not quantified; —: Not identified in any of the samples; conditions: for Relative composition of plasma proteins bound: Ab1: 50:1 w/w plasma protein:fibril
T2 construct: Synthetic amyloid β peptide 1–40 was purchased from Caslo Aps (Lyngby, Denmark); purchased Caslo Aps (Lyngby, Denmark); host or cells: synthetic peptide
Procedure: Plasma and CSF solutions were centrifuged (40,000 g, 20 min) to remove any aggregates. The protein concentration was determined using 280 nm absorbance assuming 1 Abs = 1 mg/mL. […] Control samples (without fibril material) were prepared similarly. All samples were incubated at room temperature for one hour under gentle agitation. Fibrils and fibril-bound proteins were pelleted by centrifugation at 17,000 g for 30 minutes. The supernatant (175 μL) was removed and the aggregate was re-suspended in 175 μL PBS and pelleted again before further preparation for gel analysis and spin-filter assisted digest for quantitative MS/MS.
as §2, §3, §4, §5, §6, §7

[3] = system: T3, Ab2 fibrils; assay: as above; assay type: binding, human; design: key to Identification status of plasma protein bound: Ab2: *: Identified, but not quantified; —: Not identified in any of the samples; conditions: for Relative composition of plasma proteins bound: Ab2: 50:1 w/w plasma protein:fibril; for Identification status of plasma protein bound: Ab2: symbol cells
T3 construct: Two structurally distinct fibrils of the Aβ(1–40) peptide associated with AD
Procedure: as §1, §2, §3, §4, §5, §6, §7

[4] = target: T4, C-36 fibrils (Homo sapiens, UniProt P01009); assay: as above; assay type: binding; conditions: 50:1 w/w plasma protein:fibril
T4 construct: the 36 residue C-terminal fragment of α1-antitrypsin (C-36)
T4 sequence (P01009 383-418 limits assumed): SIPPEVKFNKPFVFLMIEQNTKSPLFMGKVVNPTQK
Procedure: as §1, §2, §3, §4, §5, §6, §7

[5] = target: T5, αSN fibrils (Homo sapiens, UniProt P37840); assay: as above; assay type: binding; conditions: 50:1 w/w plasma protein:fibril
Procedure: as §1, §2, §3, §4, §5, §6, §7

[6] = system: T6, FAS4-AD aggregates; assay: as above; assay type: binding, human; design: key to Identification status of plasma protein bound: FAS4-AD: *: Identified, but not quantified; —: Not identified in any of the samples; conditions: for Identification status of plasma protein bound: FAS4-AD: symbol cells; for Relative composition of plasma proteins bound: FAS4-AD: 50:1 w/w plasma protein:fibril
T6 construct: aggregates of a mutated version of the FAS1-4 domain of TGFBIp
Procedure: as §1, §2, §3, §4, §5, §6, §7

[7] = system: T2, Ab1 fibrils; assay: Fibril incubation with CSF, quantitative MS/MS of bound proteins; assay type: binding, human; design: key to Identification status of CSF protein bound: Ab1: *: Identified, but not quantified; —: Not identified in any of the samples; conditions: for Relative composition of CSF proteins bound: Ab1: 4:1 w/w CSF protein:fibril
Procedure: as §1, §2, §3, §4, §5, §6, §7

[8] = target: T5, αSN fibrils; assay: as above; assay type: binding; design: key to Identification status of CSF protein bound: αSN: *: Identified, but not quantified; —: Not identified in any of the samples; conditions: for Relative composition of CSF proteins bound: αSN: 4:1 w/w CSF protein:fibril; for Identification status of CSF protein bound: αSN: symbol cells
Procedure: as §1, §2, §3, §4, §5, §6, §7

[9] = system: T3, Ab2 fibrils; assay: as above; assay type: binding, human; design: key to Identification status of CSF protein bound: Ab2: *: Identified, but not quantified; —: Not identified in any of the samples; conditions: for Relative composition of CSF proteins bound: Ab2: 4:1 w/w CSF protein:fibril
Procedure: as §1, §2, §3, §4, §5, §6, §7

[10] = target: T1, glucagon fibrils; assay: as above; assay type: binding; conditions: 4:1 w/w CSF protein:fibril
Procedure: as §1, §2, §3, §4, §5, §6, §7

[11] = system: T6, FAS4-AD aggregates; assay: as above; assay type: binding, human; design: key to Identification status of CSF protein bound: FAS4-AD: *: Identified, but not quantified; —: Not identified in any of the samples; conditions: for Identification status of CSF protein bound: FAS4-AD: symbol cells
Procedure: as §1, §2, §3, §4, §5, §6, §7

[12] = target: T4, C-36 fibrils; assay: as above; assay type: binding; design: key to Identification status of CSF protein bound: C-36: *: Identified, but not quantified; —: Not identified in any of the samples; conditions: for Relative composition of CSF proteins bound: C-36: 4:1 w/w CSF protein:fibril
Procedure: as §1, §2, §3, §4, §5, §6, §7

| Substance | Relative composition of plasma proteins bound: Glucagon [1] | Relative composition of plasma proteins bound: Ab1 [2] | Relative composition of plasma proteins bound: Ab2 [3] | Relative composition of plasma proteins bound: C-36 [4] | Relative composition of plasma proteins bound: αSN [5] | Relative composition of CSF proteins bound: Ab1 [7] | Relative composition of CSF proteins bound: Ab2 [9] | Relative composition of CSF proteins bound: Glucagon [10] | Identification status of CSF protein bound: FAS4-AD [11] | Relative composition of CSF proteins bound: C-36 [12] | also measured |
| --- | --- | --- | --- | --- | --- | --- | --- | --- | --- | --- | --- |
| Coagulation factor IX: plasma protein bound to fibrils | 0.1 ± 0.0 % of total protein | 0.2 ± 0.0 % of total protein | 0.3 ± 0.1 % of total protein | 0.2 ± 0.0 % of total protein | 0.3 ± 0.1 % of total protein |  |  |  |  |  | Identification status of plasma protein bound: FAS4-AD [6]: * |
| Apolipoprotein C-III: plasma protein bound to fibrils | 0.3 ± 0.0 % of total protein | 0.9 ± 0.1 % of total protein |  | 4.9 ± 0.3 % of total protein | 11.7 ± 3.0 % of total protein |  |  |  |  |  | Identification status of plasma protein bound: Ab2 [3]: *; Relative composition of plasma proteins bound: αSN ([5]; listed as ApoC-III): 11.7 % of total protein; Identification status of plasma protein bound: FAS4-AD [6]: * |
| Apolipoprotein C-I: plasma protein bound to fibrils (TPDVSSALDKLKEFGNTLEDKARELISRIKQSELSAKMREWFSETFQKVKEKLKIDS; UniProt P02654 27-83, looked up) |  |  |  | 0.6 ± 0.4 % of total protein | 5.5 ± 2.1 % of total protein |  |  |  |  |  | Identification status of plasma protein bound: Glucagon ([1]; symbol cells): *; Identification status of plasma protein bound: Ab1 ([2]; symbol cells): *; Identification status of plasma protein bound: Ab2 [3]: *; Relative composition of plasma proteins bound: FAS4-AD [6]: 1.8 ± 0.1 % of total protein |
| Dickkopf-related protein 3: CSF protein bound to fibrils |  |  |  |  |  | 7.2 ± 0.3 % of total protein | 5.5 ± 2.2 % of total protein | 1.5 ± 0.4 % of total protein | — | 3.9 ± 1.5 % of total protein | Relative composition of CSF proteins bound: αSN [8]: 10.9 ± 1.0 % of total protein |
| Gelsolin |  |  |  |  |  | 2.9 ± 0.1 % of total protein | 3.5 ± 0.6 % of total protein | 0.8 ± 0.1 % of total protein | — | 1.9 ± 0.2 % of total protein | Relative composition of CSF proteins bound: αSN [8]: 5.0 ± 0.9 % of total protein |
| Fibronectin |  |  |  | 0.2 ± 0.0 % of total protein | 1.0 ± 0.0 % of total protein | 0.9 ± 0.0 % of total protein | 1.2 ± 0.3 % of total protein | 0.2 ± 0.1 % of total protein | — | 0.7 ± 0.1 % of total protein | Identification status of CSF protein bound: αSN [8]: * |
| Fibrinogen γ chain: plasma protein bound to fibrils | 6.7 ± 0.3 % of total protein | 9.8 ± 0.3 % of total protein | 7.0 ± 0.3 % of total protein | 11.7 ± 2.0 % of total protein | 7.7 ± 1.3 % of total protein |  |  |  |  |  | Relative composition of plasma proteins bound: FAS4-AD [6]: 1.5 ± 0.4 % of total protein |
| Transthyretin |  |  |  |  |  | 3.0 ± 0.5 % of total protein | 4.0 ± 1.3 % of total protein | 1.1 ± 0.2 % of total protein |  | 2.4 ± 0.2 % of total protein | Relative composition of CSF proteins bound: αSN [8]: 4.3 ± 1.1 % of total protein; Relative composition of CSF proteins bound: FAS4-AD ([11]; 4:1 w/w CSF protein:fibril): 4.4 ± 0.3 % of total protein |
| Ig κ chain C region: CSF protein bound to fibrils |  |  |  |  |  |  |  | 0.5 ± 0.0 % of total protein | * |  | Identification status of CSF protein bound: Ab1 ([7]; symbol cells): *; Identification status of CSF protein bound: αSN [8]: *; Identification status of CSF protein bound: Ab2 ([9]; symbol cells): *; Identification status of CSF protein bound: C-36 ([12]; symbol cells): * |
| Vitamin K-dependent protein S: plasma protein bound to fibrils | 0.8 ± 0.1 % of total protein | 1.1 ± 0.0 % of total protein | 1.3 ± 0.1 % of total protein | 0.6 ± 0.1 % of total protein | 2.5 ± 0.1 % of total protein |  |  |  |  |  | Identification status of plasma protein bound: FAS4-AD [6]: * |
| Fibrinogen β chain: plasma protein bound to fibrils | 8.9 ± 1.1 % of total protein | 11.8 ± 1.1 % of total protein | 7.5 ± 0.9 % of total protein | 9.1 ± 0.8 % of total protein | 7.7 ± 2.3 % of total protein |  |  |  |  |  | Relative composition of plasma proteins bound: FAS4-AD [6]: 1.8 ± 0.2 % of total protein |
